Reference: ChEMBL document CHEMBL3046856, “Synthesis and fungicidal activity of novel pimprinine analogues” (2012)

Tests used:
Type in all cases: functional
[1] = system: Botrytis cinerea; assay: Fungicidal activity against Botryotinia fuckeliana grown on compound supplemented artificial media assessed as control of disease or pathogen at 2 ppm measured after 5 to 14 days by artificial media assay
[2] = system: Botrytis cinerea; assay: Fungicidal activity against Botryotinia fuckeliana grown on compound supplemented artificial media assessed as control of disease or pathogen at 20 ppm measured after 5 to 14 days by artificial media assay
[3] = system: Alternaria solani; assay: Fungicidal activity against Alternaria solani grown on compound supplemented artificial media assessed as control of disease or pathogen at 20 ppm measured after 5 to 14 days by artificial media assay
[4] = system: Alternaria solani; assay: Fungicidal activity against Alternaria solani grown on compound supplemented artificial media assessed as control of disease or pathogen at 2 ppm measured after 5 to 14 days by artificial media assay
[5] = system: Pythium dissimile; assay: Fungicidal activity against Pythium dissimile grown on compound supplemented artificial media assessed as control of disease or pathogen at 2 ppm measured after 5 to 14 days by artificial media assay
[6] = system: Pythium dissimile; assay: Fungicidal activity against Pythium dissimile grown on compound supplemented artificial media assessed as control of disease or pathogen at 20 ppm measured after 5 to 14 days by artificial media assay
[7] = system: Uromyces viciae-fabae; assay: Fungicidal activity against Uromyces viciae-fabae infected compound pre-treated bean leaf pieces assessed as control of disease or pathogen at 100 ppm measured after 5 to 14 days by leaf-piece assay
[8] = Fungicidal activity against Zymoseptoria tritici infected on compound pre-treated wheat leaf pieces assessed as control of disease or pathogen at 100 ppm measured after 5 to 14 days by leaf-piece assay

SMILES	Activity [1] [%]	Activity [2] [%]	Activity [3] [%]	Activity [4] [%]	Activity [5] [%]	Activity [6] [%]	Activity [7] [%]	Activity [8] [%]
Cn1cc(-c2ocnc2Cl)c2ccccc21	0	0	0	0	0	0	77	0
CCn1cc(-c2ocnc2Br)c2ccccc21	0	0	55	0	49	55	99	0
Brc1ncoc1-c1cn(CC2CC2)c2ccccc12	0	0	0	0	0	55	0	0
CCC(=O)n1cc(-c2ocnc2Cl)c2ccccc21	0	0	0	0	0	0	0	0
O=C(CCl)n1cc(-c2ocnc2Br)c2ccccc21	0	99	99	27	0	99	49	18
O=C(C(Cl)Cl)n1cc(-c2ocnc2Cl)c2ccccc21	0	99	99	0	0	99	0	0
CC(Cl)C(=O)n1cc(-c2ocnc2Cl)c2ccccc21 (stereo not given)	0	0	55	0	0	0	55	0
O=C(C(Cl)Cl)n1cc(-c2ocnc2Br)c2ccccc21	0	99	99	0	0	77	27	0
C=CCn1cc(-c2ocnc2Cl)c2ccccc21	0	0	0	0	0	0	99	0
Cn1cc(-c2ocnc2Br)c2ccccc21	0	0	0	0	0	0	55	0
O=C(n1cc(-c2ocnc2Cl)c2ccccc21)C(Cl)(Cl)Cl	0	99	99	0	0	99	55	0
CC(=O)n1cc(-c2ocnc2Cl)c2ccccc21	0	0	0	0	0	0	0	0
CCn1cc(-c2ocnc2Cl)c2ccccc21	0	0	0	0	0	55	99	0
COC(=O)n1cc(-c2ocnc2Cl)c2ccccc21			0	0	0	0	0	0
CC(=O)n1cc(-c2ocnc2Br)c2ccccc21	0	0	0	0	0	0	0	0
CC(Cl)C(=O)n1cc(-c2ocnc2Br)c2ccccc21 (stereo not given)	0	0	55	0	0	0	27	0
Clc1ncoc1-c1c[nH]c2ccccc12 [Streptochlorin]	0	99	99	99	0	99	55	36

SMILES	Activity [1] [%]	Activity [2] [%]	Activity [3] [%]	Activity [4] [%]	Activity [5] [%]	Activity [6] [%]	Activity [7] [%]	Activity [8] [%]
Fc1ccc(Cn2cc(-c3ocnc3Cl)c3ccccc32)c(F)c1	0	0	0	0	0	0	27	0
Brc1ncoc1-c1c[nH]c2ccccc12	0	99	99	0	0	99	77	0
C=CCn1cc(-c2ocnc2Br)c2ccccc21	0	27	0	0	0	0	49	18
CCS(=O)(=O)n1cc(-c2ocnc2Cl)c2ccccc21	0	0	0	0	0	27	55	0
ClC(Cl)=CCn1cc(-c2ocnc2Br)c2ccccc21	0	0	0	0	0	0	0	0
CCOC(=O)C(=O)n1cc(-c2ocnc2Cl)c2ccccc21	0	99	99	0	0	77	0	33
c1ccc2c(-c3cnco3)c[nH]c2c1	0	0	77	0	0	99	0	0
O=C(CCl)n1cc(-c2ocnc2Cl)c2ccccc21	0	99	55	0	0	99	49	0
COC(=O)n1cc(-c2ocnc2Br)c2ccccc21			0	0	0	0	0	0
CCOC(=O)Cn1cc(-c2ocnc2Cl)c2ccccc21	0	0	0	0	0	0	0	0
COCC(=O)n1cc(-c2ocnc2Br)c2ccccc21	0	99	99	0	0	77	77	0
CCC(=O)n1cc(-c2ocnc2Br)c2ccccc21	0	0	0	0	0	0	0	0
CCS(=O)(=O)n1cc(-c2ocnc2Br)c2ccccc21	0	0	0	0	0	0	0	0
COCC(=O)n1cc(-c2ocnc2Cl)c2ccccc21	0	77	99	0	0	55	55	0
Clc1ncoc1-c1cn(CC2CC2)c2ccccc12	0	0	0	0	0	99	55	33
Clc1ncoc1-c1cn(CC2CO2)c2ccccc12 (stereo not given)	0	0	0	0	0	0	77	0
